# Read-outs that look alike come from different tables or passages of the source.
# Legend:
# [1] = pKa values of different proton sources (protic additives); conditions: for pKa (H20): in water; for pKa: water
# [2] = Properties of host ionic liquid BDMeIm Tf (gravimetric, Cottrell); format: physicochemical
# Experimental: A series of protic additives were added into an ionically conductive medium in order to examine the effects of such additives upon oxygen reduction reaction (“ORR”). An aprotic ionic liquid BdMelm:Tf was used as the host for the additive. A photograph of an experimental setup is provided in FIG. 5A, with FIG. 5B showing a cartoon of a close-up of the measurement tube/chamber. […] See e.g., FIG. 5F. Also, the IL had the benefit of the superacidity of Tf, which minimizes solvent leveling effects. Additional benefits of this dry aprotic IL system include also invariant electrode, high reversibility, and high reactivity, as shown in cyclic voltammagrams (CV) in FIG. 5C and the result of the Kouteeky-Levich ([…]) analysis with respect to the number of electrons per O2 vs. potential in FIG. 5D.
# [3] = aqueous system; cited from earlier work
structure (smiles),measurement,setting,value
"Cc1nccn1C.O=S(=O)(O)C(F)(F)F [1,2-dimethylimidaozlium triflate]",pKa (H20),[1],7.4
"OCC(F)(F)F [2,2,2-trifluoroethanol]",pKa,[1],12.5
"CCCCN=C(N(C)C)N(C)C [2-butyl-1,1,3,3-tetramethylguanidinium triflate]",pKa,[1],13.6
CCCCn1cc[n+](C)c1C.O=S(=O)([O-])C(F)(F)F [BDMelm Tf],density,[2],about 1.4 g/mL
same,oxygen solubility,[2]; measured gravimetrically and through Cottrell,about 2.5 mM
O.O=S(=O)(O)C(F)(F)F [hydronium triflate],pKa (H20),[1],−1.7
"CCN(C)CC.O=S(=O)(O)C(F)(F)F [n,n-diethyl-n-methylammonium triflate]",pKa (H20),[1],10.6
OO [peroxide],pKa,[3],11.63
[O]O [superoxide],pKa,[3],about 4.7
